Results reported in ChEMBL document CHEMBL4020850, “Discovery of LSZ102, a Potent, Orally Bioavailable Selective Estrogen Receptor Degrader (SERD) for the Treatment of Estrogen Receptor Positive Breast Cancer” (J Med Chem, 2018).
In brackets after ≈: the same amount, converted by molar mass. Activity calls are given as the source filed them. No cut-off for these calls is given here.

Key:
[1] = Clearance in C57BL/6 mouse at 1 mg/kg, iv or 3 mg/kg, po; type: ADME, organism-based; details: in vivo
[2] = Cmax in C57BL/6 mouse at 3 mg/kg, po; type: ADME, organism-based; set-up: dose 3 mg/kg, route oral; details: in vivo
[3] = Oral bioavailability in C57BL/6 mouse at 3 mg/kg; type: ADME, organism-based; details: in vivo
Estrogen receptor [4] = biological target: T1, Estrogen receptor (Homo sapiens, UniProt P03372); assay: Induction of selective estrogen receptor alpha degradation in human MCF7 cells harboring TK-ERE-Luc assessed as reduction in estradiol-induced transcriptional activity after 24 hrs by luciferase reporter gene assay; type: cell-based
T1 sequence (P03372 whole entry): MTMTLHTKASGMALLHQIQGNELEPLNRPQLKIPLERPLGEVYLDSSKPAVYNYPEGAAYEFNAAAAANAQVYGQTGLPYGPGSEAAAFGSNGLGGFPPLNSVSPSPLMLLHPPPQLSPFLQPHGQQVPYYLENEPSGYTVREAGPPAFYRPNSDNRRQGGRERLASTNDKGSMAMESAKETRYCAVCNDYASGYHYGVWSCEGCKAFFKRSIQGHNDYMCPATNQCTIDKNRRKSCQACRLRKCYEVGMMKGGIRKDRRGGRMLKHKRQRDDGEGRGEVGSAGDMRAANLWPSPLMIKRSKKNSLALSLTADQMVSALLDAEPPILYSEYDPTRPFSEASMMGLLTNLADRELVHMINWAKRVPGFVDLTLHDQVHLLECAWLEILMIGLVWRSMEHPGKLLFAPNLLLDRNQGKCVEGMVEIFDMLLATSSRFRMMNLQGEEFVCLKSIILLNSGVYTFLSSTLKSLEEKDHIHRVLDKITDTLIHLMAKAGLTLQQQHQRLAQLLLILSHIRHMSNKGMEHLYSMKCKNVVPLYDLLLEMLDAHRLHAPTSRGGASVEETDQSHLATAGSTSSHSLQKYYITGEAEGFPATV

[5] = Equilibrium solubility in pH 6.8 buffer at 1 mM after 16 hrs by HPLC based shake flask method; type: physicochemical
Estrogen receptor [6] = biological target: T1, Estrogen receptor; assay: Induction of selective estrogen receptor alpha degradation in human MCF7 cells after 18 to 24 hrs by in-cell Western analysis; type: cell-based
[7] = Clearance in Sprague-Dawley rat at 1 mg/kg, iv or 3 mg/kg, po; type: ADME, organism-based; details: in vivo
[8] = Cmax in Sprague-Dawley rat at 3 mg/kg, po; type: ADME, organism-based; set-up: dose 3 mg/kg, route oral; details: in vivo
[9] = Oral bioavailability in Sprague-Dawley rat at 3 mg/kg; type: ADME, organism-based; details: in vivo
MCF7 [10] = assay: Antitumor activity against human MCF7 cells xenografted in NOD SCID gamma mouse assessed as change in tumor volume at 5 mg, sc administered once in a week for 48 days post tumor implantation measured 7 hrs post last dose; type: functional
Mus musculus [11] = assay: Downregulation of progesterone receptor mRNA level in NOD SCID gamma mouse xenografted with human MCF7 cells at 5 mg, sc administered once in a week for 48 days post tumor implantation measured 7 hrs post last dose by RT-PCR method; type: functional, organism-based
Mus musculus [12] = assay: In vivo inhibition of ER protein level in NOD SCID gamma mouse xenografted with human MCF7 cells at 5 mg, sc administered once in a week for 48 days post tumor implantation measured 7 hrs post last dose by Western blot method relative to control; type: functional
MCF7 [13] = assay: Antitumor activity against human MCF7 cells xenografted in NOD SCID gamma mouse assessed as change in tumor volume at 60 mg/kg, po 5 days per week for 48 days post tumor implantation measured 7 hrs post last dose; type: functional
Mus musculus [14] = assay: Downregulation of progesterone receptor mRNA level in NOD SCID gamma mouse xenografted with human MCF7 cells at 60 mg/kg, po 5 days per week for 48 days post tumor implantation measured 7 hrs post last dose by RT-PCR method; type: functional, organism-based
MCF7 [15] = assay: Antiproliferative activity against human MCF7 cells after 6 days in presence of estradiol by CellTiter-Glo assay; details: MCF7, 144 h
MCF7 [16] = assay: Antitumor activity against human MCF7 cells xenografted in NOD SCID gamma mouse assessed as change in tumor volume at 20 mg/kg, po qd for 48 days post tumor implantation measured 7 hrs post last dose; type: functional
[17] = AUC in NOD SCID gamma mouse xenografted with human MCF7 cells at 20 mg/kg, po qd for 19 days; type: ADME, organism-based; details: in vivo
[18] = Cmax in NOD SCID gamma mouse xenografted with human MCF7 cells at 20 mg/kg, po qd for 19 days; type: ADME, organism-based; set-up: dose 20 mg/kg, route oral; details: in vivo
Mus musculus [19] = assay: Downregulation of progesterone receptor mRNA level in NOD SCID gamma mouse xenografted with human MCF7 cells at 20 mg/kg, po qd for 48 days post tumor implantation measured 7 hrs post last dose by RT-PCR method; type: functional, organism-based
Mus musculus [20] = assay: In vivo inhibition of ER protein level in NOD SCID gamma mouse xenografted with human MCF7 cells at 20 mg/kg, po qd for 48 days post tumor implantation measured 7 hrs post last dose by Western blot method relative to control; type: functional
Rattus norvegicus [21] = assay: Dose normalized Cmax in Sprague-Dawley rat at 3 mg/kg, po; type: ADME, organism-based; details: in vivo
Rattus norvegicus [22] = assay: Dose normalized AUC (0 to t) in Sprague-Dawley rat at 1 mg/kg, iv; type: ADME, organism-based; details: in vivo
Rattus norvegicus [23] = assay: Dose normalized AUC (0 to t) in Sprague-Dawley rat at 3 mg/kg, po; type: ADME, organism-based; details: in vivo
[24] = Volume of distribution at steady state in Sprague-Dawley rat at 1 mg/kg, iv or 3 mg/kg, po; type: ADME, organism-based; details: in vivo, read-out: Vdss
[25] = Elimination half life in Sprague-Dawley rat at 1 mg/kg, iv or 3 mg/kg, po; type: ADME, organism-based; details: in vivo, read-out: beta t1/2 (converted)
Rattus norvegicus [26] = assay: Dose normalized Cmax in Wistar Han rat at 30 mg/kg, po; type: ADME, organism-based; details: in vivo
Rattus norvegicus [27] = assay: Dose normalized AUC (0 to t) in Wistar Han rat at 30 mg/kg, po; type: ADME, organism-based; details: in vivo
Rattus norvegicus [28] = assay: Dose normalized Cmax in Wistar Han rat at 100 mg/kg, po; type: ADME, organism-based; details: in vivo
Rattus norvegicus [29] = assay: Dose normalized AUC (0 to t) in Wistar Han rat at 100 mg/kg, po; type: ADME, organism-based; details: in vivo
Rattus norvegicus [30] = assay: Dose normalized Cmax in Wistar Han rat at 300 mg/kg, po; type: ADME, organism-based; details: in vivo
Rattus norvegicus [31] = assay: Dose normalized AUC (0 to t) in Wistar Han rat at 300 mg/kg, po; type: ADME, organism-based; details: in vivo
Canis familiaris [32] = assay: Dose normalized Cmax in Beagle dog at 30 mg/kg, po; type: ADME, organism-based, Canis lupus familiaris; details: in vivo
[33] = Oral bioavailability in Beagle dog at 10 mg/kg; type: ADME, organism-based, Canis lupus familiaris; details: in vivo
[34] = Elimination half life in Beagle dog at 0.3 mg/kg, iv or 10 mg/kg, po; type: ADME, organism-based, Canis lupus familiaris; details: in vivo, read-out: beta t1/2 (converted)
[35] = Clearance in Beagle dog at 0.3 mg/kg, iv or 10 mg/kg, po; type: ADME, organism-based, Canis lupus familiaris; details: in vivo
Canis familiaris [36] = assay: Dose normalized AUC (0 to t) in Beagle dog at 10 mg/kg, po; type: ADME, organism-based, Canis lupus familiaris; details: in vivo
[37] = Volume of distribution at steady state in Beagle dog at 0.3 mg/kg, iv or 10 mg/kg, po; type: ADME, organism-based, Canis lupus familiaris; details: in vivo, read-out: Vdss
Canis familiaris [38] = assay: Dose normalized AUC (0 to t) in Beagle dog at 0.3 mg/kg, iv; type: ADME, organism-based, Canis lupus familiaris; details: in vivo
Canis familiaris [39] = assay: Clearance in Beagle dog at 0.3 mg/kg, iv or 10 mg/kg, po relative to hepatic blood flow; type: ADME, organism-based, Canis lupus familiaris; details: in vivo
Canis familiaris [40] = assay: Dose normalized Cmax in Beagle dog at 10 mg/kg, po; type: ADME, organism-based, Canis lupus familiaris; details: in vivo
Canis familiaris [41] = assay: Dose normalized AUC (0 to t) in Beagle dog at 30 mg/kg, po; type: ADME, organism-based, Canis lupus familiaris; details: in vivo
[42] = AUC in Beagle dog at 10 mg/kg, po; type: ADME, organism-based, Canis lupus familiaris; details: in vivo

CC(C)c1ccccc1-c1sc2cc(O)ccc2c1Oc1ccc(/C=C/C(=O)O)cc1
clearance [1]: 0.9 L/h/kg
Cmax [2]: 1.18 µM
bioavailability [3]: 13%

Oc1ccc(-c2sc3cc(O)ccc3c2Oc2ccc(/C=C/c3nnn[nH]3)cc2)cc1
IC50 (Estrogen receptor [4]): 0.219 µM
solubility thermodynamic at 16 h, 1000 µM [5]: 190 µM (≈ 81.4 µg/mL)

CC/C(=C(/c1ccc(/C=C/C(=O)O)cc1)c1ccc2[nH]ncc2c1)c1ccc(F)cc1Cl [BRILANESTRANT]
clearance [1]: 0.96 L/h/kg
Cmax [2]: 1.24 µM
bioavailability [3]: 42%

O=C(O)CCc1ccc(Oc2c(-c3ccc(O)cc3)sc3cc(O)ccc23)cc1
solubility thermodynamic at 16 h, 1000 µM [5]: > 1000 µM

COCc1ccccc1-c1sc2cc(O)ccc2c1Oc1ccc(/C=C/C(=O)O)cc1
IC50 (Estrogen receptor [6]): 0.003 µM

O=C(O)/C=C/c1ccc(Oc2c(-c3ccc(F)cc3)sc3cc(O)ccc23)cc1
clearance [1]: 1.32 L/h/kg
IC50 (Estrogen receptor [4]): 1.82 µM
clearance [7]: 1.44 L/h/kg
Cmax [8]: 0.847 µM
bioavailability [9]: 33%
Cmax [2]: 0.505 µM
bioavailability [3]: 19%

C[C@]12CC[C@@H]3c4ccc(O)cc4C[C@@H](CCCCCCCCC[S+]([O-])CCCC(F)(F)C(F)(F)F)[C@H]3[C@@H]1CC[C@@H]2O (stereo partly drawn) [FULVESTRANT]
T/C (MCF7 [10]): 24%
Activity (Mus musculus [11]): Active
inhibition (INH) (Mus musculus [12]): 67%

CC/C(=C(\c1ccccc1)c1ccc(OCCN(C)C)cc1)c1ccccc1 [TAMOXIFEN]
T/C (MCF7 [13]): 24%
Activity (Mus musculus [14]): Active

CC(F)(F)c1cc(F)ccc1-c1sc2cc(O)ccc2c1Oc1ccc(/C=C/C(=O)O)cc1 [LSZ-102]
clearance [1]: 1.68 L/h/kg
clearance [7]: 1.14 L/h/kg
bioavailability [9]: 33%
Cmax [2]: 0.492 µM
bioavailability [3]: 12%
IC50 (MCF7 [15]): 0.0017 µM
T/C (MCF7 [16]): 2.4%
AUC at 456 h [17]: 3.23 µM·h
Cmax [18]: 1.07 µM
Activity (Mus musculus [19]): Active
inhibition in vivo at 20 mg/kg (Mus musculus [20]): 63%
Cmax/dose (Rattus norvegicus [21]): 0.24 µM
AUCt/dose (Rattus norvegicus [22]): 1849 nM·h
AUCt/dose (Rattus norvegicus [23]): 620 nM·h
Vd [24]: 0.9 L/kg
half-life [25]: 1.4 h
Cmax/dose (Rattus norvegicus [26]): 1.259 µM
AUCt/dose (Rattus norvegicus [27]): 2117 nM·h
Cmax/dose (Rattus norvegicus [28]): 0.513 µM
AUCt/dose (Rattus norvegicus [29]): 1940 nM·h
Cmax/dose (Rattus norvegicus [30]): 0.334 µM
AUCt/dose (Rattus norvegicus [31]): 3405 nM·h
Cmax/dose (Canis familiaris [32]): 0.123 µM
bioavailability [33]: 12%
half-life [34]: 4.1 h
clearance [35]: 0.3 L/h/kg
AUCt/dose (Canis familiaris [36]): 962 nM·h
Vd [37]: 0.3 L/kg
AUCt/dose (Canis familiaris [38]): 7713 nM·h
CL (Canis familiaris [39]): 15%
Cmax/dose (Canis familiaris [40]): 0.268 µM
AUCt/dose (Canis familiaris [41]): 624 nM·h
AUC [42]: 9.62 µM·h

O=C(O)/C=C/c1ccc(Oc2c(-c3ccc(C(F)(F)F)cc3)sc3cc(O)ccc23)cc1
clearance [1]: 0.36 L/h/kg
clearance [7]: 1.8 L/h/kg
Cmax [8]: 0.985 µM
bioavailability [9]: 74%
Cmax [2]: 1.38 µM
bioavailability [3]: 28%

O=C(O)/C=C/c1ccc(Nc2c(-c3ccc(O)cc3)sc3cc(O)ccc23)cc1
IC50 (Estrogen receptor [4]): > 10 µM

O=C(/C=C/c1ccc(Oc2c(-c3ccc(O)cc3)sc3cc(O)ccc23)cc1)NCCC(F)(F)F
solubility thermodynamic at 16 h, 1000 µM [5]: < 5 µM
